# Measurements as given in publication PMC12257540, “From Inhibitors to PET: SAR-Based Development of [^18F]SK60 for mIDH1 Imaging” (Journal of Medicinal Chemistry, 2025).
# Key:
# [1] = system: IDH1R132H–U251 cells; test: In vitro cell uptake of [18F]SK60 in IDH1R132H-U251 cells; format: cell-based, Human; settings: 240 min incubation
# Protocol: Human U251 glioblastoma cells, stably transfected and overexpressing either wild-type IDH1 (IDH1-U251) or IDH1R132H (IDH1R132H–U251), were obtained from Jaqueline Kessler and Dirk Vordermark (Department of Radiotherapy, Martin Luther University Halle-Wittenberg, Halle/Saale, Germany). Cells were grown in RPMI 1640 medium (10% FCS), supplemented with puromycin, to ensure the cultivation of transfected cells only.
# The IDH1-U251 and IDH1R132H–U251 cells were seeded at 4,00,000 cells/mL in a 24-well cell culture plate 1 day before the experiment. The medium was replaced by 400 μL/well, and 4 μL of a 100-x stock solution of the respective inhibitor in 10% DMSO or vehicle (10% DMSO) was added about 2 h before the experiment. The experiment was started with the addition of 100 μL of [ ^ 18 F]-SK60 (0.477 ± 0.002 MBq/mL; 4.86 ± 0.33 nM) diluted in cell culture medium per well, and the well plates were incubated in a humidified-air atmosphere incubator containing 5% CO2 at 37 °C for various times. The incubation was stopped by aspiration of the supernatant and washing the cell layers twice with prechilled PBS (500 μL/well). […] The concentrations of surface-bound and internalized activities per well were calculated as a percentage of the applied dose per well and normalized to the protein concentration per well (% AD/μg protein). […]
# [2] = logD7.4 by shake-flask method (n-octanol/PBS); format: physicochemical; settings: n-octanol/PBS pH 7.4, n = 4
# Protocol: The logD 7.4 value of [ ^ 18 F]-SK60 was experimentally determined by the conventional shake-flask method using n-octanol and PBS as the partition system.
# The two phases were presaturated with each other. A solution of the radiotracer (10 μL, 1.1 MBq) was added to a 15 mL plastic centrifuge tube containing n-octanol (3 mL) and PBS (3 mL). The tube was vortexed for 3 min and centrifuged at 3500 rpm for 5 min (Anke TDL80–2B, China). […] The logD 7.4 was determined as the ratio of cpm/mL of the n-octanol layer to that of the buffer layer. Samples from the n-octanol layer were redistributed until consistent distribution coefficient values were obtained. The measurement was carried out in triplicate and repeated three times.
# [3] = system: IDH1R132H-U251 cells (target-positive) and IDH1-U251 cells (target-negative); test: Real-time radioligand binding (LigandTracer) to live U251 cells; parameters: species or system Human; settings: room temperature, medium without or with 5 % BSA
# Protocol: Real-time radioligand binding
# Real-time radioligand binding using LigandTracer®
# The LigandTracer (LigandTracer Yellow, Ridgeview Instruments AB, Uppsala, Sweden) system allows assessment of binding kinetics (association rate constant ka and dissociation rate constant kd) and therefore dissociation constant (KD).
# Briefly, target-positive/-negative cells are seeded to different quadrants of a petri dish (Thermo Scientific Nunclon Delta #150350). Here, approximately 5x10^4 target-positive cells (IDH1R132H-U251 cells) and target-negative cells (IDH1-U251 cells) were seeded in a ~20 mm round spot (0.5 mL of a solution of 1x10^5 cells/mL), three days before the experiment. […]
# The culture medium is removed and replaced with 3 mL CO2-independent medium (Gibco #18045088, ThermoFisher Germany) without or with bovine serum albumin (BSA) (5 %; #3737.3, Carl Roth GmbH, Karlsruhe, Germany). In the instrument, the dish rotates on an inclined base, where cells in medium (3 mL) are located on one side, while radioactivity is detected on the opposite side. This allows continuous measurements of two or more alternating parts of the dish for bound radioactivity (e.g. target-positive) against background (e.g. no cells) or target-negative cells. […]
# Data was acquired in decay-corrected counts per second (CPS) and subsequently analyzed using TraceDrawer (1.9.2, Ridgeview Instruments AB, Uppsala, Sweden). […]
smiles,measurement,setting,value
Cc1cccc(NC(=O)c2nn(Cc3ccc([18F])cc3)c3c2CN(C(=O)c2ccc[nH]2)CC3(C)C)c1 [[18F]SK60],internalized radioligand,[1],0.089 ± 0.02 % AD/μg protein
same,logD,[2],2.3 ± 0.5
same,real-time radioligand binding to live cells,[3],Reliable binding of [18F]SK60 could not be observed
